Results from paper PMC10987111, “Rational Identification of Novel Antibody‐Drug Conjugate with High Bystander Killing Effect against Heterogeneous Tumors” (Advanced Science, 2024).
Where two headings read alike, the source gives them in different places.

Tests used:
SKBR-3 = test: Cell viability assay (CCK-8), SKBR-3; assay type: cell-based, human
Method: (§1) Cells were seeded in a 96‐well plate at 1000–4000 cells per well for different cell lines. After overnight incubation, serially diluted samples (100 µL) were added to each well, and the plate was incubated at 37°C for 72 h (payloads) or 108 h (ADCs). After the old medium was replaced with 100 µL fresh medium, 10 µL of the Cell Counting Kit‐8 (CCK‐8) was added to each well, and the plate was incubated at 37°C for 2 h. After gently agitating the plate, the absorbance at 450 nm was recorded using a BioTek Synergy microplate reader. EC50 values were calculated using GraphPad Prism 9.3 software. All assays were performed in triplicate.

MDA-MB-231 = test: Cell viability assay (CCK-8), MDA-MB-231; assay type: cell-based, human; settings: read-out: IC50 MDA-MB-231
Method: as §1

[1] = Parallel artificial membrane permeability assay (PAMPA); assay type: in vitro ADME; settings: for Papp at 4 h, 10 µM: PAMPA
Method: PAMPA was performed by WuXi AppTec Co., Ltd. (Wuxi, China). In brief, 150 µL of 10.0 µM donor solutions (5% DMSO) were added to each well of the donor plate, whose PVDF membrane was precoated with 5 µL of 1% lecithin/dodecane mixture. Then, 300 µL of PBS was added to each well of the PTFE acceptor plate. After incubation for 4 h at room temperature with shaking at 300 rpm, the plate was removed from the incubator, and the solution was transferred from each acceptor and donor well and mixed with acetonitrile (containing internal standard) as samples. Acceptor samples and donor samples were all analyzed by LC‐MS/MS to determine permeability rates (Pe). All assays were performed in duplicates.

NCI-N87 = test: Cell viability assay (CCK-8), NCI-N87; assay type: cell-based; settings: Homo sapiens, NCI-N87, 72 h, read-out: IC50 NCI-N87
Method: as §1, with “After overnight incubation, serially diluted samples (100 µL) were added to each well, and the plate was incubated at 37°C for 72 h (payloads) or 108 h (ADCs).” left out

JIMT-1 = test: Cell viability assay (CCK-8), JIMT-1; assay type: cell-based; settings: Homo sapiens, JIMT-1, 72 h, read-out: IC50 JIMT-1
Method: as §1

MDA-MB-453 = test: Cell viability assay (CCK-8), MDA-MB-453; assay type: cell-based; settings: Homo sapiens, MDA-MB-453, 72 h, read-out: IC50 MDA-MB-453
Method: as §1, with “After overnight incubation, serially diluted samples (100 µL) were added to each well, and the plate was incubated at 37°C for 72 h (payloads) or 108 h (ADCs).” left out

MDA-MB-361 = test: Cell viability assay (CCK-8), MDA-MB-361; assay type: cell-based; settings: Homo sapiens, MDA-MB-361, 72 h, read-out: IC50 MDA-MB-361
Method: as §1

Topo I = biological target: T1, Topo I (Homo sapiens, UniProt P11387); test: Topo I-mediated DNA cleavage assay; assay type: biochemical; settings: 10 µM
T1 sequence (P11387 1-765): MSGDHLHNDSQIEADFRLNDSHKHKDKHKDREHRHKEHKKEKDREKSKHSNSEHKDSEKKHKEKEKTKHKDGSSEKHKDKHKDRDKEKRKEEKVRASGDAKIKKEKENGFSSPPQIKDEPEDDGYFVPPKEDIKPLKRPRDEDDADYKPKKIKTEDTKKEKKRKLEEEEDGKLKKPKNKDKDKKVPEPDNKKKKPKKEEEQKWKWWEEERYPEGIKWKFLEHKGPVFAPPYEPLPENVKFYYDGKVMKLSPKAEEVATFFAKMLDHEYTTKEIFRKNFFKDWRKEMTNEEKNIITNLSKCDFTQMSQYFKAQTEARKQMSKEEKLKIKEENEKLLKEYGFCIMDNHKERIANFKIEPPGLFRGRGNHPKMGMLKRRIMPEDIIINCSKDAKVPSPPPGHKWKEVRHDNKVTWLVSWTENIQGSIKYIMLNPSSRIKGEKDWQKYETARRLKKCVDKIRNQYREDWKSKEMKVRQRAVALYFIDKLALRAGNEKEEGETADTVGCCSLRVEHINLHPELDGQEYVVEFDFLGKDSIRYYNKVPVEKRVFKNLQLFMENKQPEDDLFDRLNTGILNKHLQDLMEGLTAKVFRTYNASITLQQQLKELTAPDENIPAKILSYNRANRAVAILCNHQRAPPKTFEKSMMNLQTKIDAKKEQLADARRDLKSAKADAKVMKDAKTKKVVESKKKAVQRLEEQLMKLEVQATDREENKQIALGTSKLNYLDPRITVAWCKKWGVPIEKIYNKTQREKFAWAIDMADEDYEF
Method: DNA cleavage assay was performed by Huawei Pharmaceutical Co., Ltd. (Jinan, China) with reference to previous literature about camptothecin derivatives.^[ [63] ^]

[2] = test system: breast tumors with low HER2 expression; parameters: method as in ref 25, 26 = [25]; 25 S. Modi , W. Jacot , T. Yamashita , J. Sohn , M. Vidal , E. Tokunaga , J. Tsurutani , N. T. Ueno , A. Prat , Y. S. Chae , K. S. Lee , N. Niikura , Y. H. Park , B. Xu , X. Wang , M. Gil‐Gil , W. Li || [26]; 26 Cancer Discov. 2022 , 12 , 1828 .; settings: breast tumors with low HER2 expression ref 25, 26; cited from earlier work
[3] = test system: NCI-N87 and MDA-MB-231/GFP co-culture system; test: In vitro co-culture model for bystander-killing evaluation; assay type: cell-based, human; settings: GFP fluorescence intensity and fluorescence microscopy
Method: After overnight incubation, a single concentration or a serially diluted solution of each ADC was added. Cell viability was evaluated after 120 h using the cell counting kit‐8 assay. The mixed cell viability was determined by CCK‐8 assay. […] In the supernatant proliferation inhibition experiment, gradient concentrations of ADC were incubated with NCI‐N87 (4000 cells per well) for 48 h.

[4] = test system: NCI-N87 cells and MDA-MB-231/teLuc cells (2: 5 ratio) xenograft; test: Xenograft mouse model of HER2-heterogeneous cancer (co-inoculation) with teLuc imaging; assay type: in vivo, BALB/c nude mice; settings: single intravenous dose of 2 or 5 mg kg^-1
Method: On day 7, the tumors reached an average volume of ≈180 mm^3, mice were randomized to each group, and each ADC was given to the mice at a single dose of 5 or 2 mg kg^−1 through injection via the tail vein, with a volume of 10 mL kg^−1. The size of the tumor and body weight were monitored three times a week. The tumor volume was estimated on the mathematical formula, which is 1/2 × length × width^2.
Teal luciferase activity of each mouse in the HER2‐heterogeneous xenograft model was determined by an in vivo Imaging System (IVIS) Spectrum CT (PerkinElmer, USA) once a week (Day 7, 14, 21, 35) 10 min after intraperitoneal injection of pre‐dissolved DTZ (MeisenCTCC). The amount of luminescence was analyzed using analysis software (Living Image Software version 4.3.1; PerkinElmer) as average radiance (p per s per cm^2 per sr).

[5] = test system: HER2-low-expressing urothelial carcinoma; parameters: method as in ref 29 = [29]; 29 H. Xu , X. Sheng , L. Zhou , X. Yan , S. Li , Z. Chi , C. Cui , L. Si , B. Tang , L. Mao , B. Lian , X. Wang , X. Bai , J. Li , J. Guo , JCO 2022 , 40 , 4519 .; settings: patients with HER2(IHC 1+), 5/13, phase II ref 29; cited from earlier work
[6] = payloads, 3 days (72 h), HER2++, read-out: IC50 SKBR-3
[7] = 10.0 µM donor solution, 4 h, room temperature
[8] = 10.0 µM donor solution, 4 h, room temperature, read-out: Peff (PAMPA permeability)
[9] = Homo sapiens, SK-BR-3, 72 h, read-out: IC50 SKBR-3
[10] = Homo sapiens, SK-BR-3, read-out: pIC50 (converted)
[11] = Homo sapiens, MDA-MB-231, payloads, 3 days (72 h), HER2-
[12] = Homo sapiens, SK-BR-3, Normalized from IC50 (μM) against SKBR-3, read-out: pIC50 (converted)
[13] = Homo sapiens, SK-BR-3, payloads, 3 days (72 h), HER2++, read-out: IC50 SKBR-3

CC[C@@]1(O)C(=O)OCc2c1cc1n(c2=O)Cc2c-1nc1cc(F)c(C)c3c1c2[C@@H](NC(=O)C(O)c1ccccc1)CC3 (single isomer, unassigned) [Ed3]
IC50 (SKBR-3; [6]): 0.109 ± 0.0122 µM

CC[C@@]1(O)C(=O)OCc2c1cc1n(c2=O)Cc2c-1nc1cc(F)c(C)c3c1c2[C@@H](NC(=O)C(O)c1ccccc1)CC3 (single isomer, unassigned) [Ed4]
IC50 (MDA-MB-231; payloads, 3 days (72 h), HER2-): 4.41 nM | Peff (PAMPA permeability) [1, 7]: 3.43 10^-6 cm/s | IC50 (SKBR-3; [6]): 0.0495 ± 0.00832 µM

NC(=O)N1c2ccccc2C=Cc2ccccc21 [Carbamazepine, reference compound]
Papp at 4 h, 10 µM [1, 8]: > 10 ×10⁻⁶ cm/s

CCC1(O)C(=O)OCc2c1cc1n(c2=O)Cc2c-1nc1cc(F)c(C)c3c1c2C(NC(=O)CO)CC3 (stereo not shown) [DXd, reference compound]
IC50 (MDA-MB-231; Homo sapiens, MDA-MB-231, 72 h): 25.8 nM | IC50 (NCI-N87): 9.03 nM | Papp at 4 h, 10 µM [1, 8]: 3.12 ×10⁻⁶ cm/s | IC50 (SKBR-3; [9]): 0.0739 ± 0.0171 µM | IC50 (SKBR-3; [10]): 0.074 µM | IC50 (JIMT-1): 577 nM | IC50 (MDA-MB-453): 262 nM | IC50 (MDA-MB-361): 16.4 nM

CC[C@@]1(O)C(=O)OCc2c1cc1n(c2=O)Cc2c-1nc1cc(F)c(C)c3c1c2[C@@H](NC(=O)[C@@H](O)C(C)C)CC3 [Ed1]
IC50 (SKBR-3; [9]): 0.129 µM | IC50 (SKBR-3; [10]): 0.129 µM

CC[C@@]1(O)C(=O)OCc2c1cc1n(c2=O)Cc2c-1nc1cc(F)c(C)c3c1c2[C@@H](NC(=O)[C@H](O)C(C)C)CC3 [Ed2]
IC50 (MDA-MB-231; payloads, 3 days (72 h), HER2-): 8.32 nM | Peff (PAMPA permeability) [1, 7]: 2.67 10^-6 cm/s | IC50 (SKBR-3; [6]): 0.0421 µM

CC[C@@]1(O)C(=O)OCc2c1cc1n(c2=O)Cc2c-1nc1cc(F)c(C)c3c1c2[C@@H](NC(=O)C[C@@H](O)c1ccccc1)CC3 [Ed5]
IC50 (SKBR-3; [6]): 0.177 ± 0.0158 µM

CC[C@@]1(O)C(=O)OCc2c1cc1n(c2=O)Cc2c-1nc1cc(F)c(C)c3c1c2[C@@H](NC(=O)[C@H](O)C(F)(F)F)CC3 [Ed6]
IC50 (MDA-MB-231; [11]): 9.46 nM | IC50 (SKBR-3; [12]): 0.0604 µM | IC50 (SKBR-3; [13]): 0.0604 µM

CC[C@@]1(O)C(=O)OCc2c1cc1n(c2=O)Cc2c-1nc1cc(F)c(C)c3c1c2[C@@H](NC(=O)C(O)C(F)(F)F)CC3 (stereo partly shown) [Ed7]
IC50 (MDA-MB-231; payloads, 3 days (72 h), HER2-): 6.11 nM | Peff (PAMPA permeability) [1, 7]: 4.96 10^-6 cm/s | IC50 (SKBR-3; [6]): 0.0415 µM

CC[C@@]1(O)C(=O)OCc2c1cc1n(c2=O)Cc2c-1nc1cc(F)c(C)c3c1c2[C@@H](NC(=O)C(C)(C)O)CC3 [Ed8]
IC50 (MDA-MB-231; [11]): 4.21 nM | Papp at 4 h, 10 µM [1]: 5.74 ×10⁻⁶ cm/s | IC50 (SKBR-3; [12]): 0.0144 µM | IC50 (SKBR-3; [13]): 0.0144 ± 0.00379 µM

CC[C@@]1(O)C(=O)OCc2c1cc1n(c2=O)Cc2c-1nc1cc(F)c(C)c3c1c2[C@@H](NC(=O)C1(O)CCC1)CC3 [Ed9]
IC50 (MDA-MB-231; [11]): 2.69 nM | Topo I inhibitory activity (Topo I): significantly lower than that of DXd | IC50 (NCI-N87; payloads, 3 days, HER2++): 1.17 nM | Papp at 4 h, 10 µM [1]: 5.66 ×10⁻⁶ cm/s | IC50 (SKBR-3; [12]): 0.0132 µM | IC50 (SKBR-3; [13]): 0.0131 ± 0.00424 µM | IC50 (JIMT-1; payloads, 3 days, HER2+): 193 nM | IC50 (MDA-MB-453; payloads, 3 days, HER2+): 120 nM | IC50 (MDA-MB-361; payloads, 3 days, HER2+): 1.69 nM

CC[C@@]1(O)C(=O)OCc2c1cc1n(c2=O)Cc2c-1nc1cc(F)c(C)c3c1c2[C@@H](NC(=O)C1(O)CCCC1)CC3 [Ed10]
IC50 (MDA-MB-231; Homo sapiens, MDA-MB-231, 72 h): 5.17 nM | Topo I inhibitory activity (Topo I): lose their inhibitory activity | IC50 (SKBR-3; [9]): 0.0178 ± 0.00369 µM | IC50 (SKBR-3; [10]): 0.0178 µM

CC[C@@]1(O)C(=O)OCc2c1cc1n(c2=O)Cc2c-1nc1cc(F)c(C)c3c1c2[C@@H](NC(=O)C1(O)CCCCC1)CC3 [Ed11]
IC50 (MDA-MB-231; payloads, 3 days (72 h), HER2-): 5.43 nM | Peff (PAMPA permeability) [1, 7]: 6.12 10^-6 cm/s | IC50 (SKBR-3; [6]): 0.0177 ± 0.00534 µM

T-DM1
effect [2]: limited effect | killing of both NCI-N87 and MDA-MB-231/GFP cells in co-culture [3]: did not | tumor volume change [4]: less effective

B1: Disitamab Vedotin (conjugate, chains of the INN, looked up)
VH: EVQLVQSGAEVKKPGATVKISCKVSGYTFTDYYIHWVQQAPGKGLEWMGRVNPDHGDSYYNQKFKDKATITADKSTDTAYMELSSLRSEDTAVYFCARNYLFDHWGQGTLVTVSS
VL: DIQMTQSPSSVSASVGDRVTITCKASQDVGTAVAWYQQKPGKAPKLLIYWASIRHTGVPSRFSGSGSGTDFTLTISSLQPEDFATYYCHQFATYTFGGGTKVEIK
modifications: vedotin (MMAE) payload
ORR [5]: 38%
